Results on five compounds are retold here after ChEMBL document CHEMBL1130084, “Further definition of the D1 dopamine receptor pharmacophore: synthesis of trans-6,6a,7,8,9,13b-hexahydro-5H-benzo[d]naphth[2,1-b]azepines as rigid analogues of beta-phenyldopamine” (J Med Chem, 1997).

The target of experiment [1] is D(1A) dopamine receptor (Rattus norvegicus) (UniProt P18901). Kind of experiment: The compound is evaluated for the affinity towards Dopamine receptor D1, using [3H]- SCH 23390 as ligand on rat striatal membranes.
Experiment [2] addresses D(2) dopamine receptor (Rattus norvegicus) (UniProt P61169). Description: The compound is evaluated for the affinity towards Dopamine receptor D2, using [3H]-spiperone as ligand on rat striatal membranes.

Sequence of D(2) dopamine receptor (Rattus norvegicus) (P61169 whole entry): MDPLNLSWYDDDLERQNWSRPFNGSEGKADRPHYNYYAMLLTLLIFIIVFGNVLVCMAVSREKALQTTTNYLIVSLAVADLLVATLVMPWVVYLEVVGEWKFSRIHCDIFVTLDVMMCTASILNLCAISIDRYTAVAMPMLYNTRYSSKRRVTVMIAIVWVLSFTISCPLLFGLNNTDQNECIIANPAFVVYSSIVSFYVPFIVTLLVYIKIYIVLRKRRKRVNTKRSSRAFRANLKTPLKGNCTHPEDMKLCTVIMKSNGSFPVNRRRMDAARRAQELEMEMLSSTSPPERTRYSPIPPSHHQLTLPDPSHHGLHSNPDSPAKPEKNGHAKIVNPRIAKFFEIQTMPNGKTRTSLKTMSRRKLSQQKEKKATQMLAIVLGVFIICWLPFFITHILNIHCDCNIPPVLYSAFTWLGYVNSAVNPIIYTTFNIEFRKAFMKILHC
Sequence of D(1A) dopamine receptor (Rattus norvegicus) (P18901 whole entry): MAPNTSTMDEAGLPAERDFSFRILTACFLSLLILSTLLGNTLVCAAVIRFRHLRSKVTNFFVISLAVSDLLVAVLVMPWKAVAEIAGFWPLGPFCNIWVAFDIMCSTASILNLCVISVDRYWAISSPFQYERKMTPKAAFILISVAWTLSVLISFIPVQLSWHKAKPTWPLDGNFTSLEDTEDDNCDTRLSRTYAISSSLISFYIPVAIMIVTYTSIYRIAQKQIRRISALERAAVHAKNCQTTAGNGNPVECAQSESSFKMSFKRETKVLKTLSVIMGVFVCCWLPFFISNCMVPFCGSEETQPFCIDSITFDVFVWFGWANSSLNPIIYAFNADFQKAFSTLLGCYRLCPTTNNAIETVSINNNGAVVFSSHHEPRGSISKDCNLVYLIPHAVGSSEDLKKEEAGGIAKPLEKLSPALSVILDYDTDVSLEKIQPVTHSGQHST

In experiment [1], `CN1Cc2ccccc2[C@@H]2c3cc(O)c(Br)cc3CC[C@H]21` came in with a K0.5 of 322 nM. In experiment [1], `Oc1cc2c(cc1O)[C@H]1c3ccccc3CN[C@@H]1CC2` gave a K0.5 of 2.8 nM. As to `Oc1cc2c(cc1O)[C@H]1c3ccccc3CCN[C@@H]1CC2`, the K0.5 worked out at 2850 nM in experiment [1] and 2220 nM in experiment [2]. With `CN1CCc2ccccc2[C@@H]2c3cc(O)c(I)cc3CC[C@H]21`, the figures for the K0.5 in experiment [1] and in experiment [2] were 1380 nM and 2960 nM, respectively. Consider `CN1CCc2ccccc2[C@@H]2c3cc(O)ccc3CC[C@H]21`, for which the K0.5 in experiment [1] was 3950 nM; in experiment [2], > 10000 nM.
